# Laboratory results published in ChEMBL document CHEMBL5614374, “Novel carbazole-oxadiazole derivatives as anti-α-glucosidase and anti-α-amylase agents: Design, synthesis, molecular docking, and biological evaluation” (Eur J Med Chem, 2024).
# Calls of active or inactive are those of the source. The calls are words filed in the database; no cut-off is given here.
# Legend:
# [1] = target: T1, Alpha-glucosidase (Saccharomyces cerevisiae S288c, UniProt P53341+P38158+P07265); experiment: Inhibition of Saccharomyces cerevisiae alpha-glucosidase using p-nitrophenyl-alpha-D-glucopyranoside as substrate preincubated for 0.25 hrs followed by substrate addition and measured after 0.5 hrs by spectrophotometric analysis; assay type: protein assay
# [2] = target: T2, Alpha-amylase (Sus scrofa domesticus, UniProt Q7M328); experiment: Inhibition of hog pancreatic alpha-amylase using soluble starch as substrate preincubated for 10 mins followed by substrate addition and measured after 15 mins by absorbance based analysis
# T2 sequence (Q7M328 whole entry): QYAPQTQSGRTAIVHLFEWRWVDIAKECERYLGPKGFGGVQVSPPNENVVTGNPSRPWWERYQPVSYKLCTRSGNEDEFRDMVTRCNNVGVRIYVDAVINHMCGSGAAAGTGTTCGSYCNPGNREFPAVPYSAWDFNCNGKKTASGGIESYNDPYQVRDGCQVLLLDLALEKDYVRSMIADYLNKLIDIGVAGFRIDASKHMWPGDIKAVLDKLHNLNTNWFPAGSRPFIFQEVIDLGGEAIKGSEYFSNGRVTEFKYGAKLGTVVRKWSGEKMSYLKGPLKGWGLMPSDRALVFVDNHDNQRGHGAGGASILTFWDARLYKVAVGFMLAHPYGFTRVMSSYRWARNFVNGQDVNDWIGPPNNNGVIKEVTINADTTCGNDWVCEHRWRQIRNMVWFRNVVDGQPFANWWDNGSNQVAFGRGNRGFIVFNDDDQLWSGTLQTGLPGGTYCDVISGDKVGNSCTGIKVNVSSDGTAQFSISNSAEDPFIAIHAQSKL
# [3] = tested on: Mus musculus; experiment: Reduction in blood glucose concentration in male Kunming mouse assessed as decrease in AUC at 20 mg/kg, IG preadministered for 40 mins followed by saccharose addition and measured after 150 mins by sucrose loading test relative to control; assay type: functional; parameters: scale not given: the % may be the effect or the level left; conditions: time 190 min, 3.167 h
# [4] = tested on: Mus musculus; experiment: Reduction in blood glucose concentration in male Kunming mouse at 20 mg/kg, IG preadministered for 40 mins followed by saccharose addition and measured after 30 mins by sucrose loading test; assay type: functional, organism-based; conditions: time 70.0 min
# [5] = target: T3, Alpha-glucosidase (Saccharomyces cerevisiae S288c) (UniProt P53341+P38158+P07265); experiment: Inhibition of alpha-glucosidase (unknown origin) assessed as effect on secondary structure by measuring random coil content at 10 uM by CD spectra (reference value: 33.1 %); assay type: protein assay; parameters: scale not given: the % may be the effect or the level left; conditions: Homo sapiens
# [6] = target: T3, Alpha-glucosidase (Saccharomyces cerevisiae S288c); experiment: Inhibition of alpha-glucosidase (unknown origin) assessed as effect on secondary structure by measuring reduction in alpha-helix content at 20 uM by CD spectra (reference value: 32.1 %); assay type: protein assay; parameters: scale not given: the % may be the effect or the level left; conditions: Homo sapiens
# [7] = target: T3, Alpha-glucosidase (Saccharomyces cerevisiae S288c); experiment: Inhibition of alpha-glucosidase (unknown origin) assessed as effect on secondary structure by measuring beta-sheet content at 30 uM by CD spectra (reference value: 18.1 %); assay type: protein assay; parameters: scale not given: the % may be the effect or the level left
# [8] = target: T3, Alpha-glucosidase (Saccharomyces cerevisiae S288c); experiment: Inhibition of alpha-glucosidase (unknown origin) assessed as effect on secondary structure by measuring beta-turn content at 30 uM by CD spectra (reference value: 17.1 %); assay type: protein assay; parameters: scale not given: the % may be the effect or the level left
# [9] = target: T3, Alpha-glucosidase (Saccharomyces cerevisiae S288c); experiment: Inhibition of alpha-glucosidase (unknown origin) assessed as effect on secondary structure by measuring beta-turn content at 20 uM by CD spectra (reference value: 17.1 %); assay type: protein assay; parameters: scale not given: the % may be the effect or the level left
# [10] = target: T3, Alpha-glucosidase (Saccharomyces cerevisiae S288c); experiment: Inhibition of alpha-glucosidase (unknown origin) assessed as effect on secondary structure by measuring random coil content at 30 uM by CD spectra (reference value: 33.1 %); assay type: protein assay; parameters: scale not given: the % may be the effect or the level left; conditions: Homo sapiens
# [11] = target: T3, Alpha-glucosidase (Saccharomyces cerevisiae S288c); experiment: Inhibition of alpha-glucosidase (unknown origin) assessed as effect on secondary structure by measuring beta-sheet content at 20 uM by CD spectra (reference value: 18.1 %); assay type: protein assay; parameters: scale not given: the % may be the effect or the level left
# [12] = target: T1, Alpha-glucosidase; experiment: Inhibition of Saccharomyces cerevisiae alpha-glucosidase using p-nitrophenyl-alpha-D-glucopyranoside as substrate assessed as inhibition constant of enzyme-substrate complex incubated for 7 mins by spectrophotometer based Lineweaver-Burk plot analysis; assay type: protein assay
# [13] = Cytotoxicity against HEK293 cells incubated for 1 day by MTT assay; assay type: toxicity, cell-based; conditions: human
# [14] = Cytotoxicity against HEK293 cells assessed as cell viability at 60 uM incubated for 1 day by MTT assay relative to control; assay type: toxicity, cell-based; conditions: human, read-out: Activity
# [15] = target: T3, Alpha-glucosidase (Saccharomyces cerevisiae S288c); experiment: Inhibition of alpha-glucosidase (unknown origin) assessed as effect on secondary structure by measuring random coil content at 20 uM by CD spectra (reference value: 33.1 %); assay type: protein assay; parameters: scale not given: the % may be the effect or the level left
# [16] = target: T3, Alpha-glucosidase (Saccharomyces cerevisiae S288c); experiment: Inhibition of alpha-glucosidase (unknown origin) assessed as effect on secondary structure by measuring reduction in alpha-helix content at 5 uM by CD spectra (reference value: 32.1 %); assay type: protein assay; parameters: scale not given: the % may be the effect or the level left; conditions: Homo sapiens
# [17] = target: T3, Alpha-glucosidase (Saccharomyces cerevisiae S288c); experiment: Inhibition of alpha-glucosidase (unknown origin) assessed as effect on secondary structure by measuring beta-sheet content at 5 uM by CD spectra (reference value: 18.1 %); assay type: protein assay; parameters: scale not given: the % may be the effect or the level left
# [18] = target: T3, Alpha-glucosidase (Saccharomyces cerevisiae S288c); experiment: Inhibition of alpha-glucosidase (unknown origin) assessed as increase in enzyme particle thickness at 1 uM incubated for 15 mins by AFM imaging analysis; assay type: protein assay
# [19] = target: T3, Alpha-glucosidase (Saccharomyces cerevisiae S288c); experiment: Inhibition of alpha-glucosidase (unknown origin) assessed as effect on secondary structure by measuring beta-turn content at 5 uM by CD spectra (reference value: 17.1 %); assay type: protein assay; parameters: scale not given: the % may be the effect or the level left; conditions: Homo sapiens
# [20] = target: T3, Alpha-glucosidase (Saccharomyces cerevisiae S288c); experiment: Inhibition of alpha-glucosidase (unknown origin) assessed as increase in enzyme particle size at 1 uM incubated for 15 mins by AFM imaging analysis; assay type: protein assay
# [21] = target: T3, Alpha-glucosidase (Saccharomyces cerevisiae S288c); experiment: Inhibition of alpha-glucosidase (unknown origin) assessed as effect on secondary structure by measuring reduction in alpha-helix content at 10 uM by CD spectra (reference value: 32.1 %); assay type: protein assay; parameters: scale not given: the % may be the effect or the level left; conditions: Homo sapiens
# [22] = target: T3, Alpha-glucosidase (Saccharomyces cerevisiae S288c); experiment: Inhibition of alpha-glucosidase (unknown origin) assessed as effect on secondary structure by measuring reduction in alpha-helix content at 30 uM by CD spectra (reference value: 32.1 %); assay type: protein assay; parameters: scale not given: the % may be the effect or the level left; conditions: Homo sapiens
# [23] = target: T3, Alpha-glucosidase (Saccharomyces cerevisiae S288c); experiment: Inhibition of alpha-glucosidase (unknown origin) assessed as effect on secondary structure by measuring beta-sheet content at 10 uM by CD spectra (reference value: 18.1 %); assay type: protein assay; parameters: scale not given: the % may be the effect or the level left
# [24] = target: T3, Alpha-glucosidase (Saccharomyces cerevisiae S288c); experiment: Mixed-type inhibition of Saccharomyces cerevisiae alpha-glucosidase using p-nitrophenyl-alpha-D-glucopyranoside as substrate assessed as decrease in Km and Vmax upto 20 uM incubated for 7 mins by spectrophotometer based Lineweaver-Burk plot analysis; assay type: protein assay
# [25] = target: T3, Alpha-glucosidase (Saccharomyces cerevisiae S288c); experiment: Inhibition of alpha-glucosidase (unknown origin) assessed as effect on secondary structure by measuring random coil content at 5 uM by CD spectra (reference value: 33.1 %); assay type: protein assay; parameters: scale not given: the % may be the effect or the level left; conditions: Homo sapiens
# [26] = target: T3, Alpha-glucosidase (Saccharomyces cerevisiae S288c); experiment: Inhibition of alpha-glucosidase (unknown origin) assessed as effect on secondary structure by measuring beta-turn content at 10 uM by CD spectra (reference value: 17.1 %); assay type: protein assay; parameters: scale not given: the % may be the effect or the level left
# [27] = target: T4, Alpha-amylase (Sus scrofa domesticus) (UniProt Q7M328); experiment: Mixed-type inhibition of hog pancreatic alpha-amylase using soluble starch as substrate upto 35 uM preincubated for 10 mins followed by substrate addition and measured after 15 mins by Lineweaver-Burk plot analysis; conditions: time 25.0 min
# T4 sequence (whole entry): T2 sequence (Q7M328 whole entry)
# [28] = target: T2, Alpha-amylase; experiment: Inhibition of hog pancreatic alpha-amylase using soluble starch as substrate assessed as inhibition constant of free alpha-amylase preincubated for 10 mins followed by substrate addition and measured after 15 mins by Lineweaver-Burk plot analysis
# [29] = target: Alpha amylase (Homo sapiens) (UniProt P0DUB6); experiment: Inhibition of alpha-amylase (unknown origin) assessed as increase in enzyme particle size at 50 uM incubated for 30 mins by AFM imaging analysis; assay type: protein assay
# Chain of Alpha amylase (Homo sapiens) (P0DUB6 whole entry, looked up): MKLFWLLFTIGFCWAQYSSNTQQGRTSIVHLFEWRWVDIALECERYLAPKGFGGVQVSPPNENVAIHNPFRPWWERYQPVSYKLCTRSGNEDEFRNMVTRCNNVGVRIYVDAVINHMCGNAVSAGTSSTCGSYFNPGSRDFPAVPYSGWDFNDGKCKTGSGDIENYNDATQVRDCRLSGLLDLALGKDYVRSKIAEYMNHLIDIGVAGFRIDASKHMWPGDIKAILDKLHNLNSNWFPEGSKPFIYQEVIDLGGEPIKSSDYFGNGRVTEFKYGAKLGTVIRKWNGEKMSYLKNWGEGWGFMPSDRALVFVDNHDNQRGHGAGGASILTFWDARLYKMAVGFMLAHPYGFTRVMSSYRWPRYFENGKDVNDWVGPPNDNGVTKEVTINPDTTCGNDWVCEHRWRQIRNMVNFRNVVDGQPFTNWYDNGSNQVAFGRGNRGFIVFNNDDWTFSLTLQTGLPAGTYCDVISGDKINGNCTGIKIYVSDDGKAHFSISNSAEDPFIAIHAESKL
# [30] = target: Alpha amylase (Homo sapiens) (UniProt P0DUB6); experiment: Inhibition of alpha-amylase (unknown origin) assessed as increase in enzyme particle thickness at 50 uM incubated for 30 mins by AFM imaging analysis; assay type: protein assay
# [31] = target: T2, Alpha-amylase; experiment: Inhibition of hog pancreatic alpha-amylase using soluble starch as substrate assessed as inhibition constant of enzyme-substrate complex preincubated for 10 mins followed by substrate addition and measured after 15 mins by Lineweaver-Burk plot analysis
# [32] = target: T1, Alpha-glucosidase; experiment: Inhibition of Saccharomyces cerevisiae alpha-glucosidase using p-nitrophenyl-alpha-D-glucopyranoside as substrate assessed as inhibition constant of free alpha-glucosidase incubated for 7 mins by spectrophotometer based Lineweaver-Burk plot analysis; assay type: protein assay
compound,measurement,setting,value
O=C(CSc1nnc(CCn2c3ccccc3c3ccccc32)o1)Nc1ccc(Cl)cc1[N+](=O)[O-],IC50,[1],37.96 µM
same,IC50,[2],89.7 µM
C[C@H]1O[C@H](O[C@H]2[C@H](O)[C@@H](O)[C@@H](O[C@H]3[C@H](O)[C@@H](O)C(O)O[C@@H]3CO)O[C@@H]2CO)[C@H](O)[C@@H](O)[C@@H]1N[C@H]1C=C(CO)[C@@H](O)[C@H](O)[C@H]1O (some centres undefined) [ACARBOSE],Activity,[3],28.57%
same,Activity,[4],Active
O=C(CSc1nnc(CCn2c3ccccc3c3ccccc32)o1)Nc1ccc(Oc2ccccc2)cc1,IC50,[1],39.52 µM
same,IC50,[2],74.8 µM
CCOc1ccc(NC(=O)CSc2nnc(CCn3c4ccccc4c4ccccc43)o2)cc1,Activity,[5],36.1%
same,Activity,[6],25.7%
same,Activity,[7],22.9%
same,Activity,[3],11.74%
same,Activity,[8],18.5%
same,IC50,[1],21.39 µM
same,Activity,[9],18.4%
same,Activity,[10],38.8%
same,IC50,[2],61.5 µM
same,Activity,[11],22.4%
same,Ki,[12],13.19 µM
same,IC50 at 1 day,[13],193 µM
same,"viability at 24 h, 60 µM",[14],96.1%
same,Activity,[15],38.1%
same,Activity,[16],28.9%
same,Activity,[4],Active
same,Activity,[17],20%
same,inhibition,[18],Active
same,Activity,[19],17.7%
same,inhibition,[20],Active
same,Activity,[21],28.5%
same,Activity,[22],25.1%
same,Activity,[23],20.3%
same,inhibition,[24],Active
same,Activity,[25],35.3%
same,Activity,[26],17.8%
O=C(CSc1nnc(CCn2c3ccccc3c3ccccc32)o1)Nc1ccccc1,IC50,[1],43.26 µM
same,IC50,[2],56.2 µM
O=C(CSc1nnc(CCn2c3ccccc3c3ccccc32)o1)Nc1ccc(Cl)cc1,IC50,[1],22.07 µM
same,IC50,[2],83.2 µM
Cc1cccc(NC(=O)CSc2nnc(CCn3c4ccccc4c4ccccc43)o2)c1,IC50,[1],66.89 µM
same,IC50,[2],81.2 µM
O=C(CSc1nnc(CCn2c3ccccc3c3ccccc32)o1)Nc1ccc(Cl)cc1Cl,IC50,[1],92.05 µM
same,IC50,[2],94.3 µM
Cc1ccc(NC(=O)CSc2nnc(CCn3c4ccccc4c4ccccc43)o2)c([N+](=O)[O-])c1,IC50,[1],67.35 µM
same,IC50,[2],54.6 µM
Cc1ccc(NC(=O)CSc2nnc(CCn3c4ccccc4c4ccccc43)o2)c(C)c1,IC50,[1],> 300 µM
same,IC50,[2],120 µM
Cc1ccccc1NC(=O)CSc1nnc(CCn2c3ccccc3c3ccccc32)o1,IC50,[1],> 300 µM
same,IC50,[2],> 200 µM
COc1ccc(NC(=O)CSc2nnc(CCn3c4ccccc4c4ccccc43)o2)c([N+](=O)[O-])c1,IC50,[1],85.95 µM
same,IC50,[2],64.6 µM
O=C(CSc1nnc(CCn2c3ccccc3c3ccccc32)o1)Nc1ccc([N+](=O)[O-])cc1,IC50,[1],22.22 µM
same,IC50,[2],86.3 µM
Cc1ccc(NC(=O)CSc2nnc(CCn3c4ccccc4c4ccccc43)o2)cc1,IC50,[1],80.64 µM
same,IC50,[2],126 µM
O=C(CSc1nnc(CCn2c3ccccc3c3ccccc32)o1)Nc1ccc(F)cc1,Activity,[3],10.66%
same,inhibition,[27],Active
same,IC50,[1],27.73 µM
same,IC50,[2],45.5 µM
same,IC50 at 1 day,[13],181 µM
same,"viability at 24 h, 60 µM",[14],90.3%
same,Ki,[28],45.1 µM
same,inhibition,[29],Active
same,Activity,[4],Active
same,inhibition,[30],Active
same,Ki,[31],63.3 µM
same,Ki,[32],22.04 µM
